Where a name gives a salt, the structure may show the parent alone. Read-outs that look alike come from different tables or passages of the source. Each block holds one compound with its values, some of them ahead of it.
Experiments:
[1] = tested on: MDBK line; assay: MTT Cell Proliferation Assay, MDBK cells; assay type: cell-based, bovine
Method in brief: (§1)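 Each concentration ran in quadruplicate across duplicate plates, with compounds serially diluted in DMSO and delivered at 0.5% DMSO in 0.5% FBS medium for 3 days.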

[2] = tested on: epithelial carcinoma A431 cell line; assay: MTT Cell Proliferation Assay, A431 cells; assay type: cell-based; settings: for MTT Assay IC50(A431/MDBK): ratio in parentheses: ratio MDBK IC50 / A431 IC50 (selectivity)
Method in brief: as §1

[3] = molecular target: T1, EGFR (Homo sapiens, UniProt P00533); assay: EGFR in-cell Western (ICW) screening protocol (EGFR inhibition assay); assay type: cell-based; design: ICW 1 / ICW 2 / ICW Avg: unit not given here; settings: for ICW Avg / ICW 1 / ICW 2: ICW assay; for ICW Avg: average of runs 1 and 2; for ICW 1: run 1; for ICW 2: run 2; for ICW assay: Table 10
T1 construct: host or cells: A431
T1 sequence (P00533 25-1210): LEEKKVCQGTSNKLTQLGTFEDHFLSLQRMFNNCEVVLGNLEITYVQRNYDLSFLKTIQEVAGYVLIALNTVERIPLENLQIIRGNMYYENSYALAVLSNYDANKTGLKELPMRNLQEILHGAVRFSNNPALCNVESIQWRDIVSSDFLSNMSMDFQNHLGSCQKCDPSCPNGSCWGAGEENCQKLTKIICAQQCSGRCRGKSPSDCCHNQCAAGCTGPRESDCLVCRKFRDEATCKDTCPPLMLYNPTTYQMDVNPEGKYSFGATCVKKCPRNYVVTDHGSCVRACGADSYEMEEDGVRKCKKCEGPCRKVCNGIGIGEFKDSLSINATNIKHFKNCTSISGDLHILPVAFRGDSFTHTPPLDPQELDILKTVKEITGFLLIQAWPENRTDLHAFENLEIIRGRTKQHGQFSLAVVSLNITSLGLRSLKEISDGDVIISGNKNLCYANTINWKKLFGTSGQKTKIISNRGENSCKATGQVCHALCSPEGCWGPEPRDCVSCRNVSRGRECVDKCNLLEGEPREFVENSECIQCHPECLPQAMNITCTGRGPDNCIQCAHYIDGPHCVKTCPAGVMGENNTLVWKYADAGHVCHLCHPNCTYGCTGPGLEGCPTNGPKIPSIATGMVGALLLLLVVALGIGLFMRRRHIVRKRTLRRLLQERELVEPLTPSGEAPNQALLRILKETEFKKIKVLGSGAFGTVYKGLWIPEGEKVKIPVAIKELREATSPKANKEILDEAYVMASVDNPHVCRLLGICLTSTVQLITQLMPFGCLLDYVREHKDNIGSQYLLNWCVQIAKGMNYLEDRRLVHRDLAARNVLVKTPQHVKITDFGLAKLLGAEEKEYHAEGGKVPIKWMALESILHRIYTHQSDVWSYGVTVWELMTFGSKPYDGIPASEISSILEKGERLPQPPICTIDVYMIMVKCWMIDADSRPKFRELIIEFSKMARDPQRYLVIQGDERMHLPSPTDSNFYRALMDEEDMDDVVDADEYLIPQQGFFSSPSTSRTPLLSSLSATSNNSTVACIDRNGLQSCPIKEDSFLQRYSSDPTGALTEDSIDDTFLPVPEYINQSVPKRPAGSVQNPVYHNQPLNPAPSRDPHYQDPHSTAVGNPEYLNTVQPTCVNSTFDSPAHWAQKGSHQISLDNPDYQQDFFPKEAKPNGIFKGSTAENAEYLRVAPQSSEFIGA
Method in brief: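 In-cell Western read-out: fixed A431 cells were co-stained for total EGFR and phospho-EGFR (Tyr1173; some runs Tyr1045). Before fixation, cells were serum-starved for 2 h, exposed to compound for 4 h, then given EGF for 10 min, usually at 10 ng/ml final (6.6 or 12.5 ng/ml in some runs).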

[4] = Bos taurus, MDBK, MDBK cells, second value of cell, read-out: MTT Assay IC50(A431/MDBK): MDBK
[5] = Homo sapiens, A-431, A431 cells, first value of cell, read-out: MTT Assay IC50(A431/MDBK): A431
[6] = Homo sapiens, A-431, first value of 'a/b (c)', taken as A431 cells, read-out: MTT Screen, first value of cell
[7] = Bos taurus, MDBK, second value of 'a/b (c)', taken as MDBK cells, read-out: MTT Screen, second value of cell
[8] = Bos taurus, MDBK, 72 h, Table 10, second of x/y(ratio): MDBK, three day treatment, unit not printed (doses in μM), read-out: MTT assay (second value)
[9] = Homo sapiens, A-431, 72 h, Table 10, first of x/y(ratio): A431, three day treatment, unit not printed (doses in μM), read-out: MTT assay (first value)
[10] = % Inhibition of EGF dependent EGFR phosphorylation in A431 cells, compound 125 μM in assay
[11] = MDBK cells, second value of cell, read-out: MTT Assay IC50(A431/MDBK): MDBK

Compound: CCCc1cc(=O)[nH]c(Nc2nc(C)c3ccc(OC)cc3n2)n1 [12669 + TFA]
- IC50 [1, 4]: 36.7 µM
- IC50 [2, 5]: 49.3 µM
- MTT Assay IC50(A431/MDBK): ratio in parentheses [2]: 0.74
- ICW Avg [3]: 25.42
- ICW 1 [3]: 11.73
- ICW 2 [3]: 39.10

Compound: O=C(NC(=S)Nc1ccc(S(=O)(=O)N2CCCCC2)cc1)C1CCC1 [AD4-11421]
- IC50 [1, 7]: 43.5 µM
- IC50 [2, 6]: 41.5 µM
- ICW Screen (ICW Inhibition) [3]: 37.181

Compound: Cc1c(O)ccc2c(CN3CCN(Cc4ccc5c(c4)OCO5)CC3)cc(=O)oc12 [AD4-10491]
- IC50 ([1]; Table 11, second of x/y(ratio): MDBK, unit not printed (doses in μM), read-out: MTT Screen (second value)): 40.6 µM
- IC50 ([2]; Table 11, first of x/y(ratio): A431, unit not printed (doses in μM), read-out: MTT Screen (first value)): 22.2 µM
- ICW Screen ([3]; Table 11, % Inhibition of EGF dependent EGFR phosphorylation in A431 cells, compound 125 μM in assay): 29.223

Compound: Cc1cc(C)nc(Nc2nc(-c3ccccc3)c3ccc(Cl)cc3n2)n1 [compound 11636]
- IC50 [1, 11]: 14.7 µM
- IC50 [2, 5]: 26.8 µM
- ICW Avg [3]: 62.56
- ICW 1 [3]: 61.28
- ICW 2 [3]: 63.84

Compound: CCOC(=O)c1c(N)nc(Nc2nc(C)c3cc(C)c(C)cc3n2)nc1-c1ccccc1 [compound 11825]
- IC50 [1, 4]: 17.9 µM
- IC50 [2, 5]: 4.06 µM
- ICW Avg [3]: 54.02
- ICW 1 [3]: 52.17
- ICW 2 [3]: 55.87

Compound: CCc1c(C)nc(Nc2nc(C)c3ccc(C)cc3n2)[nH]c1=O [12683 + TFA]
- IC50 [1, 11]: 45.3 µM
- IC50 ([2]; A431 cells, first value of cell, read-out: MTT Assay IC50(A431/MDBK): A431): 63.4 µM
- MTT Assay IC50(A431/MDBK): ratio in parentheses [2]: 0.71
- ICW Avg [3]: 40.88
- ICW 1 [3]: 54.37
- ICW 2 [3]: 27.38

Compound: COc1cccc2c(C)nc(Nc3nc(C)cc(=O)[nH]3)nc12 [11772 + TFA]
- IC50 [1, 4]: 9.04 µM
- IC50 [2, 5]: 9.75 µM
- MTT Assay IC50(A431/MDBK): ratio in parentheses [2]: 0.93
- ICW Avg [3]: 77.09
- ICW 1 [3]: 80.68
- ICW 2 [3]: 73.50

Compound: CCCc1cc(=O)[nH]c(Nc2nc(C)c3ccc(C)cc3n2)n1 [compound 12674]
- IC50 [1, 4]: 8.41 µM
- IC50 [2, 5]: 10.7 µM
- MTT Assay IC50(A431/MDBK): ratio in parentheses [2]: 0.79
- ICW Avg [3]: 40.69
- ICW 1 [3]: 29.69
- ICW 2 [3]: 51.69

More lines, main results first:

- IC50 [2, 6]: 19.5 µM
- ICW Screen (ICW Inhibition) [3]: 83.13
Compound: COc1ccc(/C=C/C(=O)NC(=S)Nc2ccc(S(=O)(=O)Nc3nc(C)cc(C)n3)cc2)cc1OC [AD4-11883]
- MTT Screen, second value of cell ([1]; second value of 'a/b (c)', taken as MDBK cells): non- conver- gent

- IC50 [2, 6]: 40.5 µM
- ICW Screen (ICW Inhibition) [3]: 30.469
Compound: CN1CCN(S(=O)(=O)c2ccc(NC(=S)NC(=O)/C=C/c3ccccc3)cc2)CC1 [AD4-12145]
- IC50 [1, 7]: 41.8 µM

- IC50 [2, 9]: 6.99 µM
- ICW assay [3, 10]: 45.7824
Compound: CCOc1ccccc1NC(=S)Nc1ccc(S(=O)(=O)Nc2ccc(Cl)cc2)cc1 [AD4-12521]
- IC50 [1, 8]: 6.54 µM

- IC50 [2, 9]: 6.8 µM
- ICW assay [3, 10]: 112.768
Compound: Cc1ccc(NC(=S)Nc2ccc(S(=O)(=O)Nc3ccccc3)cc2)cc1Cl [AD4-12844]
- IC50 [1, 8]: 6.13 µM

- IC50 [2, 9]: 4.05 µM
- ICW assay [3, 10]: 79.4624
Compound: CC(C)c1ccc(NC(=S)Nc2ccc(S(=O)(=O)Nc3ccc(Cl)cc3)cc2)cc1 [AD4-12503]
- IC50 [1, 8]: 5.43 µM

- IC50 [2, 9]: 11.1 µM
- ICW assay [3, 10]: 118.46
Compound: O=S(=O)(Nc1ccc(Cl)cc1)c1ccc(NC(=S)Nc2ccc(Br)cc2)cc1 [AD4-12504]
- IC50 [1, 8]: 15.6 µM

- IC50 [2, 9]: 15.1 µM
- ICW assay [3, 10]: 34.1727
Compound: CCOc1ccc(NS(=O)(=O)c2ccc(NC(=S)Nc3ccccc3)cc2)cc1 [AD4-11344]
- IC50 [1, 8]: 15.3 µM

- IC50 [2, 6]: 49.6 µM
- ICW Screen (ICW Inhibition) [3]: 29.289
Compound: COc1ccc(CC(=O)NC(=S)Nc2ccc(S(=O)(=O)Nc3nc(C)cc(C)n3)cc2)cc1 [AD4-12266]
- IC50 [1, 7]: 45.9 µM

- IC50 [2, 6]: 6.33 µM
- ICW Screen (ICW Inhibition) [3]: 62.846
Compound: CC(C)CC(=O)NC(=S)Nc1ccc(S(=O)(=O)NCCc2ccccc2)cc1 [AD4-10608]
- IC50 [1, 7]: 5.35 µM
